Laboratory results taken from ChEMBL document CHEMBL1135881, “Ribose-modified nucleosides as ligands for adenosine receptors: synthesis, conformational analysis, and biological evaluation of 1'-C-methyl adenosine analogues” (J Med Chem, 2002).

Key:
[1] = target: Adenosine receptor A2a (Rattus norvegicus, UniProt P30543); assay: Affinity to Adenosine A2A receptor of rat brain striatum using [3H]-CGS- 21680; assay type: tissue-based
[2] = species: Rattus norvegicus; assay: % maximal inhibition of Adenylyl cyclase activity in rat cortical membranes at 10 uM; assay type: functional
[3] = target: Adenosine receptors; A1 & A3 (Rattus norvegicus) (UniProt P25099+P28647); assay: Selectivity for Adenosine A3 over Adenosine A1 receptor; assay type: protein assay
[4] = target: T1, Adenosine receptor A1 (Rattus norvegicus, UniProt P25099)
T1 sequence (P25099 whole entry): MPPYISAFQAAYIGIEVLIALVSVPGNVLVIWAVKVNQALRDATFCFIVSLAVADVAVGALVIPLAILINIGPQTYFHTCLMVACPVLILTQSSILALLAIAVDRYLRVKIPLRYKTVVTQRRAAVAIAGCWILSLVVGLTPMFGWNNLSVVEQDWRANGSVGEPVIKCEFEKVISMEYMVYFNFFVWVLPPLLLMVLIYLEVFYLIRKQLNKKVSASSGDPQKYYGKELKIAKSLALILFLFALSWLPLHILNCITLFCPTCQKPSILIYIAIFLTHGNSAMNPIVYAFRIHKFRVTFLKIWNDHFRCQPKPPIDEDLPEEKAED
Description: Inhibition of [3H]CHA (N6-cyclohexyl adenosine) to rat brain membrane Adenosine A1 receptor

[5] = target: T2, Adenosine receptor A3 (Rattus norvegicus) (UniProt P28647); assay: Displacement of [3H](R)-PIA from Adenosine A3 receptor of rat testis membrane with 150 nM DPCPX at 10e-5 M
T2 sequence (whole entry): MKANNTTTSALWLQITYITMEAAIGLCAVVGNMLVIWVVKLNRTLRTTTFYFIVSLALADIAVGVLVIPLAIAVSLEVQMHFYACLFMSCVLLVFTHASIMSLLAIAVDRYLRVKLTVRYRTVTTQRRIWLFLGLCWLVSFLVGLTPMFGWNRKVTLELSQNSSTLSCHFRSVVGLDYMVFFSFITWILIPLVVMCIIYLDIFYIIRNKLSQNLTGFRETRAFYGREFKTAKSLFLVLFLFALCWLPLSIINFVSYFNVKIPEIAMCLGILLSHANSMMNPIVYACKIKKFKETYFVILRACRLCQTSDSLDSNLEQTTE

[6] = target: T2, Adenosine receptor A3 (Rattus norvegicus); assay: Displacement of [3H](R)-PIA from Adenosine A3 receptor of rat testis membrane with 150 nM DPCPX
[7] = species: Rattus norvegicus; assay: Inhibition of Adenylyl cyclase activity in rat cortical membranes; assay type: functional
[8] = species: Rattus norvegicus; assay: % maximal inhibition of Adenylyl cyclase activity in rat cortical membranes at 100 uM; assay type: functional
[9] = target: T3, Adenosine receptor A3 (Rattus norvegicus, UniProt P28647); assay: Affinity to Adenosine A3 receptor of rat testis membrane using [3H](R)-PIA with 150 nM DPCPX
T3 sequence (P28647 whole entry): T2 sequence (whole entry)

Sequence of Adenosine receptor A2a (P30543 whole entry): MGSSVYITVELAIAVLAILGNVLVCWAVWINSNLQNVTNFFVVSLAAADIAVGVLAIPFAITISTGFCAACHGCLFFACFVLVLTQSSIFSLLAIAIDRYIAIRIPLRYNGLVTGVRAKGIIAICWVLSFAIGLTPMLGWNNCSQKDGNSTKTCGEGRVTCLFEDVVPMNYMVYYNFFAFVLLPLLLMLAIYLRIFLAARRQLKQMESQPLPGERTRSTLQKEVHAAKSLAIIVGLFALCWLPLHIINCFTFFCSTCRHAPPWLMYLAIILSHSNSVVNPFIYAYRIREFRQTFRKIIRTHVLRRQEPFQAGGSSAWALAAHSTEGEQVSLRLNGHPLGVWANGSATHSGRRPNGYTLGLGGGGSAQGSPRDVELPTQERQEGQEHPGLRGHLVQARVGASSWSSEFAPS

OC[C@H]1O[C@@H](n2cnc3c(NC4CCCC4)ncnc32)[C@H](O)[C@@H]1O [N6-CYCLOPENTYLADENOSINE]
Ki [1]: 0.38 µM | Max inhibition [2]: 15.5%

C[C@@H](Cc1ccccc1)Nc1ncnc2c1ncn2C1O[C@H](CO)[C@@H](O)[C@@]1(C)O (some centres undefined)
Selectivity [3]: 200 | Ki [4]: 0.05 µM

C[C@@]1(O)[C@H](O)[C@@H](CO)O[C@H]1n1cnc2c(NC3CCCC3)ncnc21
Selectivity [3]: 22.1 | Ki [4]: 0.0095 µM

C[C@@]1(O)[C@H](O)[C@@H](CO)O[C@H]1n1cnc2c(N)ncnc21
Displacement [5]: 0% | Ki [4]: 0.74 µM

C[C@@]1(n2cnc3c(N)ncnc32)O[C@H](CO)[C@@H](O)[C@H]1O
Selectivity [3]: > 1.3 | Displacement [6]: 19% | IC50 [7]: 3.44 µM | Max inhibition [8]: 22% | Ki [4]: 7.7 µM

C[C@H](Cc1ccccc1)Nc1ncnc2c1ncn2[C@]1(C)O[C@H](CO)[C@@H](O)[C@H]1O
Ki [9]: 0.67 µM | IC50 [7]: 0.065 µM | Max inhibition [8]: 23.7%

C[C@H](Cc1ccccc1)Nc1ncnc2c1ncn2[C@@H]1O[C@H](CO)[C@@H](O)[C@@]1(C)O
Selectivity [3]: 230 | Ki [1]: 7.4 µM | Ki [4]: 0.0047 µM

C[C@@H](Cc1ccccc1)Nc1ncnc2c1ncn2[C@]1(C)O[C@H](CO)[C@@H](O)[C@H]1O
Ki [9]: 6.16 µM | IC50 [7]: 0.14 µM | Max inhibition [8]: 29% | Ki [4]: 0.27 µM

C[C@@]1(n2cnc3c(NC4CCCC4)ncnc32)O[C@H](CO)[C@@H](O)[C@H]1O
Ki [9]: 5.17 µM | Selectivity [3]: 52 | IC50 [7]: 0.357 µM | Max inhibition [8]: 17.4% | Ki [4]: 0.1 µM

C[C@@]1(O)[C@@H](CO)O[C@@H](n2cnc3c(N)ncnc32)[C@@H]1O
Selectivity [3]: > 202
